Results taken from patent US20100267561A1, “HERBICIDAL PYRIDAZINONE DERIVATIVES” (priority 2007, published 2010).

Legend:
Experiment in all cases: Test B pre-/postemergence plant response
Type in all cases: in vivo
[1] = tested on: blackgrass (Alopecurus myosuroides); conditions: for Blackgrass plant response rating: 8 g ai/ha
Procedure, shortened: (§1)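 Visual scoring from 0 (no effect) to 100 (complete control) against untreated controls was done 13 to 15 days after greenhouse treatment. Chemicals were formulated in a surfactant-containing non-phytotoxic solvent and applied to soil preemergence or to 1- to 4-leaf (2-18 cm) plants postemergence.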

[2] = tested on: catchweed bedstraw (Galium aparine); conditions: Preemergence
Procedure, shortened: as §1

[3] = tested on: cocklebur (Xanthium strumarium); conditions: for Cocklebur plant response rating: 8 g ai/ha
Procedure, shortened: as §1

[4] = tested on: common ragweed (Ambrosia elation); conditions: for Ragweed plant response rating: 8 g ai/ha
Procedure, shortened: as §1

corn (Zea mays) = conditions: for Corn plant response rating: 8 g ai/ha
Procedure, shortened: as §1

[5] = tested on: green foxtail (Setaria viridis); conditions: for Foxtail, Green plant response rating: 8 g ai/ha
Procedure, shortened: as §1

kochia (Kochia scoparia) = conditions: for Kochia plant response rating: 8 g ai/ha
Procedure, shortened: as §1

[6] = tested on: lambsquarters (Chenopodium album); conditions: for Lambsquarters plant response rating: 8 g ai/ha
Procedure, shortened: as §1

[7] = tested on: large crabgrass (Digitaria sanguinalis); conditions: for Crabgrass, Large plant response rating: 8 g ai/ha
Procedure, shortened: as §1

[8] = tested on: pigweed (Amaranthus retroflexus); conditions: for Pigweed plant response rating: 8 g ai/ha
Procedure, shortened: as §1

[9] = tested on: velvetleaf (Abutilon theophrasti); conditions: for Velvetleaf plant response rating: 8 g ai/ha
Procedure, shortened: as §1

wild oat (Avena fatua) = conditions: for Oat, Wild plant response rating: 8 g ai/ha
Procedure, shortened: as §1

[10] = tested on: woolly cupgrass (Eriochloa villosa); conditions: for Cupgrass, Woolly plant response rating: 8 g ai/ha
Procedure, shortened: as §1

[11] = tested on: yellow nutsedge (Cyperus esculentus); conditions: for Nutsedge, Yellow plant response rating: 8 g ai/ha
Procedure, shortened: as §1

[12] = Postemergence, 16 g ai/ha, scale 0 to 100
[13] = Postemergence, 31 g ai/ha, scale 0 to 100, 0 no effect, 100 complete control
[14] = Postemergence, 62 g ai/ha, scale 0 to 100, 0 no effect, 100 complete control
[15] = Preemergence, 16 g ai/ha, scale 0 to 100 (0 no effect, 100 complete control)
[16] = Preemergence, 31 g ai/ha, 0 to 100 scale, 0 no effect, 100 complete control
[17] = Preemergence, 62 g ai/ha, scale 0 to 100
[18] = Preemergence, 31 g ai/ha, scale 0 to 100 (0 no effect, 100 complete control)

CCCc1cc(-c2ccc(Cl)cc2)nn1-c1c(O)cnn(C)c1=O [Compound 43]
60: Foxtail, Green plant response rating ([5]; postemergence, 0-100 scale) | Plant response rating, Cupgrass, Woolly [10, 15]
80: Corn plant response rating (corn (Zea mays); postemergence, 0-100 scale) | Cupgrass, Woolly plant response rating ([10]; postemergence, 0-100 scale)
0: Plant response rating, Galium ([2]; 16 g ai/ha, scale 0 to 100 (0 no effect, 100 complete control)) | Plant response rating, Galium ([2]; 31 g ai/ha, 0 to 100 scale, 0 no effect, 100 complete control) | Plant response rating, Galium ([2]; 62 g ai/ha, scale 0 to 100) | Galium plant response rating ([2]; 8 g ai/ha, scale 0 to 100) | Cocklebur plant response rating ([3]; postemergence, 0-100 scale) | Plant response rating, Cocklebur [3, 12] | Plant response rating, Cocklebur [3, 13] | Plant response rating, Cocklebur [3, 14] | Plant response rating, Cocklebur [3, 15] | Plant response rating, Cocklebur [3, 16] | Plant response rating, Cocklebur [3, 17] | Cocklebur plant response rating ([3]; Preemergence, scale 0 to 100) | Ragweed plant response rating ([4]; postemergence, 0-100 scale) | Plant response rating, Ragweed [4, 12] | Plant response rating, Ragweed [4, 13] | Plant response rating, Ragweed [4, 14] | Plant response rating, Ragweed [4, 15] | Plant response rating, Ragweed [4, 18] | Plant response rating, Ragweed [4, 17] | Ragweed plant response rating ([4]; Preemergence, scale 0 to 100) | Corn plant response rating (corn (Zea mays); Preemergence, scale 0 to 100) | Kochia plant response rating (kochia (Kochia scoparia); postemergence, 0-100 scale) | Plant response rating, Kochia (kochia (Kochia scoparia); [12]) | Plant response rating, Kochia (kochia (Kochia scoparia); [13]) | Plant response rating, Kochia (kochia (Kochia scoparia); [14]) | Plant response rating, Kochia (kochia (Kochia scoparia); [15]) | Plant response rating, Kochia (kochia (Kochia scoparia); [16]) | Plant response rating, Kochia (kochia (Kochia scoparia); [17]) | Kochia plant response rating (kochia (Kochia scoparia); Preemergence, scale 0 to 100) | Lambsquarters plant response rating ([6]; postemergence, 0-100 scale) | Plant response rating, Lambsquarters [6, 12] | Plant response rating, Lambsquarters [6, 13] | Plant response rating, Lambsquarters [6, 14] | Plant response rating, Lambsquarters [6, 15] | Plant response rating, Lambsquarters [6, 16] | Plant response rating, Lambsquarters [6, 17] | Lambsquarters plant response rating ([6]; Preemergence, scale 0 to 100) | Pigweed plant response rating ([8]; postemergence, 0-100 scale) | Plant response rating, Pigweed [8, 12] | Plant response rating, Pigweed [8, 13] | Plant response rating, Pigweed [8, 14] | Plant response rating, Pigweed [8, 15] | Plant response rating, Pigweed [8, 18] | Plant response rating, Pigweed [8, 17] | Pigweed plant response rating ([8]; Preemergence, scale 0 to 100) | Velvetleaf plant response rating ([9]; postemergence, 0-100 scale) | Plant response rating, Velvetleaf [9, 12] | Plant response rating, Velvetleaf [9, 14] | Plant response rating, Velvetleaf [9, 15] | Plant response rating, Velvetleaf [9, 18] | Plant response rating, Velvetleaf ([9]; Preemergence, 62 g ai/ha, 0 to 100 scale, 0 no effect, 100 complete control) | Velvetleaf plant response rating ([9]; Preemergence, scale 0 to 100) | Cupgrass, Woolly plant response rating ([10]; Preemergence, scale 0 to 100) | Nutsedge, Yellow plant response rating ([11]; postemergence, 0-100 scale) | Plant response rating, Nutsedge, Yellow [11, 12] | Plant response rating, Nutsedge, Yellow [11, 13] | Plant response rating, Nutsedge, Yellow [11, 14] | Plant response rating, Nutsedge, Yellow [11, 15] | Plant response rating, Nutsedge, Yellow [11, 18] | Plant response rating, Nutsedge, Yellow [11, 17] | Nutsedge, Yellow plant response rating ([11]; Preemergence, scale 0 to 100)
85: Blackgrass plant response rating ([1]; postemergence, 0-100 scale) | Plant response rating, Blackgrass [1, 12] | Plant response rating, Corn (corn (Zea mays); [12]) | Plant response rating, Corn (corn (Zea mays); [13]) | Plant response rating, Corn (corn (Zea mays); [16]) | Plant response rating, Crabgrass, Large [7, 14]
95: Plant response rating, Blackgrass [1, 13] | Plant response rating, Blackgrass [1, 15] | Oat, Wild plant response rating (wild oat (Avena fatua); postemergence, 0-100 scale) | Plant response rating, Oat, Wild (wild oat (Avena fatua); [18]) | Plant response rating, Oat, Wild (wild oat (Avena fatua); [17]) | Plant response rating, Cupgrass, Woolly [10, 13] | Plant response rating, Cupgrass, Woolly [10, 14]
70: Blackgrass plant response rating ([1]; Preemergence, scale 0 to 100) | Plant response rating, Corn (corn (Zea mays); [15]) | Plant response rating, Crabgrass, Large [7, 12] | Oat, Wild plant response rating (wild oat (Avena fatua); Preemergence, scale 0 to 100)
65: Crabgrass, Large plant response rating ([7]; postemergence, 0-100 scale) | Plant response rating, Crabgrass, Large [7, 15]
15: Crabgrass, Large plant response rating ([7]; Preemergence, scale 0 to 100)
100: Plant response rating, Blackgrass [1, 14] | Plant response rating, Blackgrass [1, 16] | Plant response rating, Blackgrass [1, 17] | Plant response rating, Corn (corn (Zea mays); [14]) | Plant response rating, Corn (corn (Zea mays); [17]) | Plant response rating, Foxtail, Green [5, 13] | Plant response rating, Foxtail, Green [5, 14] | Plant response rating, Foxtail, Green [5, 15] | Plant response rating, Foxtail, Green [5, 16] | Plant response rating, Foxtail, Green [5, 17] | Foxtail, Green plant response rating ([5]; Preemergence, scale 0 to 100) | Plant response rating, Crabgrass, Large [7, 17] | Plant response rating, Oat, Wild (wild oat (Avena fatua); [12]) | Plant response rating, Oat, Wild (wild oat (Avena fatua); [13]) | Plant response rating, Oat, Wild (wild oat (Avena fatua); [14]) | Plant response rating, Cupgrass, Woolly [10, 17]
75: Plant response rating, Foxtail, Green [5, 12] | Plant response rating, Crabgrass, Large [7, 13]
90: Plant response rating, Oat, Wild (wild oat (Avena fatua); [15]) | Plant response rating, Cupgrass, Woolly [10, 12]
98: Plant response rating, Crabgrass, Large [7, 16] | Plant response rating, Cupgrass, Woolly [10, 16]
